Among the data in US7790753B2, “Derivatives of N-[phenyl(alkylpiperidine-2-yl)methyl]benzamide, preparation method thereof and application of same in therapeutics” (sanofi-aventis, priority 2003, dated 2010) are IC50 values, retold here.

Where a name gives a salt, the structure may show the parent alone.

One test concerns the target T1, transporter glyt2 (Mus musculus, UniProt Q761V0).
T1 construct: from tissue; host or cells: spinal cord of male OF1 Iffa Credo mice
T1 sequence (Q761V0 1-799): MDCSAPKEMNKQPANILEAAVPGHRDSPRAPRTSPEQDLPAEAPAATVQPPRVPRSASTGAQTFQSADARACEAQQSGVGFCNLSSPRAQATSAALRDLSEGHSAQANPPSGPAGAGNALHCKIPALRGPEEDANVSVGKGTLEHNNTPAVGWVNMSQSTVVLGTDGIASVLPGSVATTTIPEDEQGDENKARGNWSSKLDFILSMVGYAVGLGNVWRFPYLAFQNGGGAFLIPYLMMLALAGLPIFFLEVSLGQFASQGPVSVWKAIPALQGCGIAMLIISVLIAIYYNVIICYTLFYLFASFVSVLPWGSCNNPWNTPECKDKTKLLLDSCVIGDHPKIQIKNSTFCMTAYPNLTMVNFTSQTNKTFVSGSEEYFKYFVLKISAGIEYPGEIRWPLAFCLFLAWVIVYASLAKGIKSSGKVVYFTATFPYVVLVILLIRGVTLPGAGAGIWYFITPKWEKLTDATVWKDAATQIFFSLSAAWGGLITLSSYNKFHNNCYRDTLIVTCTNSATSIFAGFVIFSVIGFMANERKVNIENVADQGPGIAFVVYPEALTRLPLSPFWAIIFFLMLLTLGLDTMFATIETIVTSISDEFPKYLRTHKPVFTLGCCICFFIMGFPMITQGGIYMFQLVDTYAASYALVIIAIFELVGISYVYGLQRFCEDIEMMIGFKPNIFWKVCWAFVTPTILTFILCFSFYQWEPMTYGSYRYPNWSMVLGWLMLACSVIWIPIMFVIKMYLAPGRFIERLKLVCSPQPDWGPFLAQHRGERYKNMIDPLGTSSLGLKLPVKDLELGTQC
The experiment in a line: Glycine transportation ([14C]glycine uptake) in mouse spinal cord homogenate. The format is biochemical. To be noted: 10 μM [14C]glycine, 10 minutes at 25° C., read-out: IC50, concentration capable of reducing by 50% the specific uptake of glycine. An excerpt: Study of the Glycine Transportation in Mouse Spinal Cord Homogenate
The uptake of [^14C]glycine by the transporter glyt2 is studied in mouse spinal cord homogenate by measuring the radioactivity incorporated in the presence or absence of test compound.
After euthanizing the animals (male OF1 Iffa Credo mice weighing 20 to 25 g on the day of the experiment), the spinal cord of each animal is rapidly removed, weighed and stored on ice. The samples are homogenized in pH 7.4 Krebs-HEPES buffer ([4-(2-hydroxyethyl)-1-piperazineethanesulfonic acid), in a proportion of 25 ml/g of tissue.
50 μl of homogenate are preincubated for 10 minutes at 25° C. in the presence of pH 7.4 Krebs-HEPES buffer and of test compound at various concentrations, or of 10 mM of glycine to determine the nonspecific uptake. [^14C]glycine (specific activity=112 mCi/mmol) is then added over 10 minutes at 25° C. to a final concentration of 10 μM. The reaction is quenched by vacuum filtration and the radioactivity is estimated by solid scintillation by counting on a Microbeta Tri-Lux™ counter. The efficacy of the compound is determined by means of the IC50, the concentration capable of reducing by 50% the specific uptake of glycine, defined by the difference in radioactivity incorporated by the control batch and the batch that received 10 mM of glycine.

The target of test [1] is T2, native human transporter glyt1 (Homo sapiens, UniProt P48067).
T2 construct: SK-N-MC cells (human neuroepithelial cells) expressing the native human transporter glyt1; endogenous in cells; host or cells: SK-N-MC cells (human neuroepithelial cells)
T2 sequence (P48067 1-706): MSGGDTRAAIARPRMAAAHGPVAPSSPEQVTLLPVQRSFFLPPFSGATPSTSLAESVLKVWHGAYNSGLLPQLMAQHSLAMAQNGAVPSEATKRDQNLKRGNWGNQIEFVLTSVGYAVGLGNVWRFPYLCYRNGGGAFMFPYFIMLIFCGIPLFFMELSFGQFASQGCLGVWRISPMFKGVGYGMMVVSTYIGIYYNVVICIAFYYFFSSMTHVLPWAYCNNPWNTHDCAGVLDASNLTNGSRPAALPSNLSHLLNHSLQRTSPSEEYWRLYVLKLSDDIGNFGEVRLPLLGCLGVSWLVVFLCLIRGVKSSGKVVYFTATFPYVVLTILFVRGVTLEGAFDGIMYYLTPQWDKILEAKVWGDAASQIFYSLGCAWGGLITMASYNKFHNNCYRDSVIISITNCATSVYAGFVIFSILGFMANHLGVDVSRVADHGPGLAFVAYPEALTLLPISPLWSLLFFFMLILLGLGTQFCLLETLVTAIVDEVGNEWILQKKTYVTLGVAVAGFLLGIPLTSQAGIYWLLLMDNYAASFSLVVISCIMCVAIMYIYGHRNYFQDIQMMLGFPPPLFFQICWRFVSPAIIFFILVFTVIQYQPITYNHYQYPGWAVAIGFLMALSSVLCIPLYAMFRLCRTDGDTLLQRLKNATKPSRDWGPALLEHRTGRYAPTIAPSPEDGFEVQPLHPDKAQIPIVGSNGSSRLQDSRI
The experiment in a line: Glycine transportation ([14C]glycine uptake) in SK-N-MC cells expressing the native human transporter glyt1. It counts as cell-based. To be noted: 10 μM [14C]glycine, 10 minutes at 37° C., read-out: IC50, concentration of compound that reduces by 50% the specific uptake of glycine. As to the method: Study of Glycine Transportation in SK-N-MC Cells Expressing the Native Human Transporter glyt1
The uptake of [^14C]glycine is studied in SK-N-MC cells (human neuroepithelial cells) expressing the native human transporter glyt1 by measuring the radioactivity incorporated in the presence or absence of the test compound. The cells are cultured as a monolayer for 48 hours in plates pretreated with 0.02% fibronectin. On the day of the experiment, the culture medium is removed and the cells are washed with Krebs-HEPES buffer ([4-(2-hydroxyethyl)-1-piperazineethanesulfonic acid) at pH 7.4. After preincubation for 10 minutes at 37° C. in the presence either of buffer (control batch) or of test compound at various concentrations or of 10 mM glycine (determination of the nonspecific uptake), 10 μM of [^14C]glycine (specific activity 112 mCi/mmol) are then added.
Incubation is continued for 10 minutes at 37° C., and the reaction is quenched by washing twice with pH 7.4 Krebs-HEPES buffer. The radioactivity incorporated by the cells is then estimated after adding 100 μl of liquid scintillant and stirring for 1 hour. Counting is performed on a Microbeta Tri-Lux™ counter. The efficacy of the compound is determined by means of the IC50, which is the concentration of compound that reduces by 50% the specific uptake of glycine, defined by the difference in radioactivity incorporated by the control batch and the batch that received 10 mM of glycine.

For the compound `CC1CCCC(C(NC(=O)c2cccc(C(F)(F)F)c2Cl)c2ccccc2)N1C` (stereo not drawn) [Compound 1, Cis-threo-2-chloro-N-[(1,6-dimethyl-2-piperidyl)(phenyl)methyl]-3-(trifluoromethyl)benzamide hydrochloride 1:1], the IC50 at transporter glyt2 is 120 nM; in test [1], 510 nM.

For `CC1CCC(C(NC(=O)c2cccc(C(F)(F)F)c2Cl)c2ccc(F)cc2)N(C)C1` (stereo not drawn) [Compound 5, Trans-threo-2-chloro-N-[(1,5-dimethyl-2-piperidyl)(4-fluorophenyl)methyl]-3-(trifluoromethyl)benzamide hydrochloride 1:1], the IC50 in test [1] is 100 nM. As for `CC1CCN(C)C(C(NC(=O)c2cccc(C(F)(F)F)c2Cl)c2ccccc2)C1` (stereo not drawn) [Compound 9, Cis-threo-2-chloro-N-[(1,4-dimethyl-2-piperidyl)(phenyl)methyl]-3-(trifluoromethyl)benzamide hydrochloride 1:1], the IC50 was determined as 70 nM at transporter glyt2 and 90 nM in test [1]. On to `CN1CCCCC1(C)C(NC(=O)c1cccc(C(F)(F)F)c1Cl)c1ccccc1` (stereo not drawn) [Compound 10, Threo-2-chloro-N-[(1,2-dimethyl-2-piperidyl)(phenyl)methyl]-3-(trifluoromethyl)benzamide hydrochloride 1:1], for which the IC50 in test [1] came to 8 nM.
